Where “and” joins values, the source holds several entries; their conditions need not be identical. Equal entries are not always repeated.
System: Escherichia coli. ess.
Assay: Agar diffusion bioassay of diluted original antibiotic solutions (Example 9)
Format: cell-based
Set-up: unit not given here
Conditions: in duplicate, indicator organism Escherichia coli. ess.
Experimental: Example 2(a) above was repeated using SCV (15) as the starting material. [drawing 27] Antibiotic in reaction mixtures was estimated by the agar diffusion method. Cyclization reaction mixtures were bioassayed using Micrococcus luteus ATCC 9341 and Escherichia coli Ess as indicator organisms. Ring expansion reaction mixtures were bioassayed using E. coli Ess as indicator organism in agar plates supplemented with penicillinase at 2 x 10^5 units/ml.
One hour after the antibiotics were administered blood was collected from the rats into sterile citrate containing syringes. Blood samples were centrifuged to sediment red blood cells and 20 micro litre amounts of plasma were bioassayed in duplicate using Escherichia coli. ess. as the indicator organism. Original antibiotic solutions were also diluted and bioassayed in duplicate.

Compound | bioassay of original antibiotic solution (1 microgram per millilitre) | bioassay of original antibiotic solution (10 micrograms per millilitre)
CC1=C(C(=O)O)N2C(=O)[C@@H](NC(=O)CSCC(N)C(=O)O)[C@H]2SC1 (stereo partly shown) [(17), Carboxymethylcysteinyl-Desacetoxycephalosporin C] | 17.5 and 17.0 | 33
CC(=O)OCC1=C(C(=O)[O-])N2C(=O)[C@@H](NC(=O)CCCC(N)C(=O)O)[C@H]2SC1.[Na+] (stereo partly shown) [Na-Ceph-C, reference compound] | 8.8 | 23.5

Source: patent publication EP0144170B1, “Biosynthesis of unnatural cephalosporins” (QUEEN'S UNIVERSITY AT KINGSTON, priority 1983, dated 1985)
